Results on two molecules are retold here after patent publication US20190209506A1, “METHODS OF REDUCING OR PREVENTING OXIDATION OF LDL OR LIPID MEMBRANES IN A SUBJECT IN NEED THEREOF” (Amarin Pharmaceuticals Ireland Limited, priority 2018, published 2019).

Data set [1] deals with human sdLDL. Nature of the data set: Copper-induced sdLDL oxidation, TBARS (Example 7). It is filed as biochemical.
Experimental: An experiment to study the antioxidant effect of EPA in LDL and small dense LDL (“sdLDL”) was performed. LDL and sdLDL were isolated from the plasma of healthy volunteers by iodixanol density gradient ultracentrifugation, and adjusted to a final apolipoprotein concentration of 2 mg/mL. […] Lipid oxidation was initiated with 10 μM CuSO4 and monitored by the colorimetric detection of thiobarbituric acid reactive substances (TBARS) for 1 hr. Vitamin E was also incubated with sample aliquots as a positive control.
Data set [2] has as its system human LDL. In words: Copper-induced oxidation of unfractionated LDL, TBARS (Example 7). It is filed as biochemical. Particulars: 1 hour. The procedure: An experiment to study the antioxidant effect of EPA in LDL and small dense LDL (“sdLDL”) was performed. LDL and sdLDL were isolated from the plasma of healthy volunteers by iodixanol density gradient ultracentrifugation, and adjusted to a final apolipoprotein concentration of 2 mg/mL. […] Vitamin E was also incubated with sample aliquots as a positive control.

Data set [3] concerns the target T1, HMG-CoA reductase (Homo sapiens, UniProt P04035).
T1 sequence (P04035 1-888): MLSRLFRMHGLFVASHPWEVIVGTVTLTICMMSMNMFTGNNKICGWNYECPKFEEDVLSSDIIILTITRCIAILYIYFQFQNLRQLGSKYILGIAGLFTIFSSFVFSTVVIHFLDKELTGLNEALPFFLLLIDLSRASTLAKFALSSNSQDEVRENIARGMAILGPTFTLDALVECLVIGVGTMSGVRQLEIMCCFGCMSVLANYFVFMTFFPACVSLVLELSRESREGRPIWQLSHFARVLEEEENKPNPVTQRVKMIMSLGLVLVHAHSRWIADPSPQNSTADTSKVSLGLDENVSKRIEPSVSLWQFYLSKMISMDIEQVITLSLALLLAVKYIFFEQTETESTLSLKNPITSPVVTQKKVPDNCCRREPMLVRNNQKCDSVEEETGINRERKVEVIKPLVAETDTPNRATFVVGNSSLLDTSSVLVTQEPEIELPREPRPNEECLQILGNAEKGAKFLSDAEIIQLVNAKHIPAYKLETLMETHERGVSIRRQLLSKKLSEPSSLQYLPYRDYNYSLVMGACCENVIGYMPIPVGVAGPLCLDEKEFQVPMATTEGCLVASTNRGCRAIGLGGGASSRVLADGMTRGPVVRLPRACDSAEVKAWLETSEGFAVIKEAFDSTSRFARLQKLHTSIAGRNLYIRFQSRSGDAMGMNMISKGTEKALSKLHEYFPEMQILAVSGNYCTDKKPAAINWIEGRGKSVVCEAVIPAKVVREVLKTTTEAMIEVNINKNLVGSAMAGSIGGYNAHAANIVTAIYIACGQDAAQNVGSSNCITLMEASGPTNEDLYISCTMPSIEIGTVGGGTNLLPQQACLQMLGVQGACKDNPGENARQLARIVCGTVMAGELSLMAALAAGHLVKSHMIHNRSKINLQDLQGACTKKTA
Particulars: metabolized by hepatic cytochrome P450; cited from earlier work.

Data set [4] is described as follows: Glucose-induced membrane lipid peroxidation (LOOH, CHOD-iodide assay) in DLPC/cholesterol vesicles (Examples 4, 5). It is filed as biochemical. Particulars: 1.0 μM; glucose 200 mg/dL; 96 hours. The procedure: All test compounds were further diluted in ethanol or aqueous buffer as needed. Glucose was prepared in saline buffer (0.5 mM HEPES, 154 mM NaCl, pH 7.3) at 11.0 mM (200 mg/dL). CHOD-iodide color reagent (stock) was prepared, with slight modification, as described by from El-Saadani et al. (J. […] Samples were shell-dried under nitrogen gas and placed under vacuum for 1 h to remove residual solvent. […] Lipid suspensions were then vortexed for 3 min at ambient temperature to form MLVs. All MLV samples were subjected to time-dependent autoxidation by incubating at 37° C. in an uncovered, shaking water bath. This method allows lipid peroxidation to occur gradually without requiring the use of exogenous initiators. Small aliquots (5-100 μL) of each sample were removed, immediately following MLV preparation (0 hour) and after exposing samples to oxidative conditions for 72 or 96 hour, and combined with 1.0 mL of activated CHOD-iodide color reagent. Aliquot volume was reduced with each successive time point to ensure that spectrophotometric readings were within the optimal adsorption range. Test samples were covered and incubated in darkness at room temperature for at least 4 hr. Sample absorbances were then measured against a CHOD blank at 365 nm using a Beckman DU-640 spectrophotometer. The CHOD colorimetric assay is based on the oxidation of iodide (I^−) by lipid hydroperoxide (LOOH) to form triiodide the quantity of which is directly proportional to the amount of LOOH present in the lipid sample. The molar absorptivity (ε) of I3^− is 2.46×10^4 M^−1 cm^−1 at 365 nm. […] All MLV samples were subjected to time-dependent autoxidation by incubating at 37° C. in an uncovered, shaking water bath. This method allows lipid peroxidation to occur gradually without requiring the use of exogenous initiators. Small aliquots (5-100 μL) of each sample were removed, immediately following MLV preparation (0 hr) and after exposing samples to oxidative conditions for 72 or 96 hr, and combined with 1.0 mL of activated CHOD-iodide color reagent. Aliquot volume was reduced with each successive time point to ensure that spectrophotometric readings were within the optimal adsorption range. Test samples were covered and incubated in darkness at room temperature for at least 4 hr. Sample absorbances were then measured against a CHOD blank at 365 nm using a Beckman DU-640 spectrophotometer. […] The molar absorptivity (ε) of I3^− is 2.46×10^4 M^−1 cm^−1 at 365 nm.

Data set [5] deals with rat renal glomerular endothelial cells. Nature of the data set: NO and ONOO^− release ex vivo from glomerular endothelial cells exposed to oxLDL and high glucose (Example 13). Particulars: 10.0 μM, 1 hr; oxLDL 11 mg/dL and glucose 300 mg/dL; vs vehicle. In kind it is cell-based. The procedure: Healthy male Wistar Kyoto (WKY) rats, aged 7-9 weeks and weighing 250±20 g, were obtained from inbred colonies (National Institutes of Health, Bethesda, Md.). Animals were housed in a controlled environment that provided food and water ad libitum prior to the study. […] Animals were sacrificed and tissue samples obtained immediately for experimentation. All procedures were conducted in accordance with standard Institutional Animal Care and Use Committee guidelines and conformed to the Guide for the Care and Use of Laboratory Animals published by the US National Institutes of Health.
Immediately after sacrificing the rats, kidneys were removed, cut into 100 μm sections and transferred to a separate organ chamber containing Dulbecco's phosphate buffered saline ([…]) and […] at pH 7.4. […]
The NO/ONOO− nanosensor was positioned near the surface of the endothelial cells using a computer-controlled M3301 micromanipulator (x-y-z resolution of 0.2 μm) and microscope (both from World Precision Instruments, Berlin, Germany) fitted with a CD camera. Each analyte was measured from amperograms and standard calibration curves collected under maximum current. […] Changes in current (proportional to the molar concentrations of NO or ONOO^− released) were monitored continuously immediately following CaI stimulation.

On to `CC(C)c1c(C(=O)Nc2ccccc2)c(-c2ccccc2)c(-c2ccc(F)cc2)n1CC[C@@H](O)C[C@@H](O)CC(=O)O` [atorvastatin], for which the “effect on sdLDL oxidation compared to vehicle-treated controls” value in data set [1] (10 μM, 1 hour) is reported as “did not have any significant antioxidant activity”. Also, the “inhibition of TBARS formation / sdLDL oxidation” value in data set [1] (10 μM, 1 hr, vs vehicle) turned out to be 0.1±7%. The “effect on unfractionated LDL oxidation” value in data set [2] (10 μM) is given as “did not have any significant antioxidant activity”. Also, the “share of circulating HMG-CoA reductase inhibitory activity accounted for by active metabolites” value in data set [3] was “approximately 70%”.
As to `CC(C)c1c(C(=O)Nc2ccccc2O)c(-c2ccccc2)c(-c2ccc(F)cc2)n1CC[C@@H](O)C[C@@H](O)CC(=O)O` [ATM, Atorvastatin ortho- (o-) hydroxy (active) metabolite], in data set [4], the “antioxidant effect (LOOH formation)” value was “separate and potent antioxidant effects”. For the same molecule, the “inhibition of sdLDL oxidation” value in data set [1] (0.5 μM, 1 hr) was 5±5%; in data set [1] (1.0 μM, 1 hr, vs vehicle), 18±5%; in data set [1] (highest dose, 1 hr), 90±2%. The “effect on unfractionated LDL oxidation, dose dependence” value in data set [2] is “significant and dose-dependent inhibition of unfractionated LDL oxidation beginning at 1.0 μM”. Besides, the “increase of NO release” value in data set [5] was determined as 205%. Also, in data set [5], the “reduction of ONOO^− release” value amounted to 25%.
